One assay has as its system N. europaea. The assay can be described thus: Oxygen (O2) uptake of N. europaea cell suspension. The class given is cell-based, Nitrosomonas europaea. The following applies: FIG. 12, cells at 0.5 mg/mL total protein, thiram 4 μM, nitrapyrin and formulations 100 μM. Here is the method:
1.5 L of cell culture suspension containing N. europaea bacteria (ATCC #19718) was resuspended into a phosphate buffer (0.1M NaPB, 2 mM Mg SO4, pH of 7.5). The amount of N. europaea protein was quantified using a Biuret assay.
To a buffer solution containing 10 μM of (NH4)2SO4 in a total reaction volume of 5 mL was added 0.25 mg/mL of the N. europaea containing cell suspension. The N. europaea protein content varied (e.g., 0.25 mg/mL, 0.3 mg/mL or 0.5 mg/mL total protein). Measurements of O2 present in the reaction medium were taken immediately after the addition of the cell suspension to the buffer solution for and were taken continuously over a certain time period.
Test compounds and formulations included 4 μM thiram, 100 μM nitrapyrin, 100 μM of formulation 2, 100 μM of formulation 3, 100 μM of formulation 4, 100 μM of formulation 2 plus 4 μM thiram, 100 μM of formulation 3 plus 4 μM thiram; and 100 μM of formulation 4 plus 4 μM, and thiram, untreated N. europaea assay served as the control.
Results are typically plotted as a function of measured oxygen (i.e., the amount of dissolved oxygen) in solution over time to generate a inhibition curve (FIG. 11). Measurements of the area under the inhibition curve can provide a bar chart showing the oxygen consumption of N. europaea of the entire testing period.

A further assay concerns Nitrosomonas europaea. The assay can be described thus: Inhibition of nitrite generation by N. europaea cell suspension (Griess reagent, absorbance 548 nm). The class given is cell-based. The following applies: thiram 4 μM, relative to zero inhibitor control, read-out: % control (percent control of nitrification inhibition), observed. Here is the method: 1.5 L of cell culture suspension containing Nitrosomonas europaea (N. europaea) bacteria (ATCC #19718) was resuspended into a phosphate buffer (0.1M NaPB, 2 mM Mg SO4, pH of 7.5). The amount of N. europaea protein was quantified using a Biuret assay. A sample of the cell culture suspension containing about 0.3 mg/mL, 0.25 mg/mL, or 0.5 mg/mL of N. europaea protein was incubated with 50 μL of (NH4)2SO4 in a total reaction volume of 5 mL. The test measured inhibition for treatment rates of 4 μM thiram, 100 μM nitrapyrin, 100 μM of formulation 2 (form.2), formulation 3 (form.3), formulation 4 (form.4) and 100 μM of formulation 2 (form.2) plus 4 μM thiram, 100 μM of formulation 3 (form.3) plus 4 μM thiram and 100 μM of formulation 4 (form.4) plus 4 μM thiram; an untreated N. europaea assay served as the control. At time points 0, 30, and 60 minutes post addition of (NH4)2SO4, an aliquot of 500 μL was removed from the reaction mixture and was incubated for 30 minutes with 500 μL of Griess Reagent in the dark followed by measuring the absorbance at 548 nm for the presence or absence of nitrite. The percent of nitrification inhibition was calculated based on the relative percentage of nitrite measurement against the zero inhibitor control measurement (see FIGS. 2-4 showing the percent control of nitrification inhibition). […]

The values below come from patent US20230059705A1, “NITRIFICATION INHIBITOR FUNGICIDE COMPOSITION AND USE THEREOF” (Verdesian Life Sciences U.S., LLC, priority 2019, published 2023).

Each structure is given as a SMILES string. Read-outs that look alike come from different tables or passages of the source.

One may read the inhibition as the relative decrease from the control value, in per cent. Turning to `CN(C)C(=S)SSC(=S)N(C)C` [Thiram], the inhibition at 4 µM was 20% in the assay on N. europaea (Nitrosomonas europaea, read-out: inhibition of oxygen consumption by N. europaea); 77.7 ± 1% in the assay with Nitrosomonas europaea (0.5 h, 30 min after (NH4)2SO4, formulation 100 μM); 77.3 ± 1.2% in the assay on Nitrosomonas europaea (1 h, 60 min after (NH4)2SO4, formulation 100 μM).

In the case of `Clc1cccc(C(Cl)(Cl)Cl)n1` [nitrapyrin, 2-chloro-6-(trichloromethyl)-pyridine], the “inhibition of oxygen consumption by N. europaea” value in the assay with N. europaea is recorded as “did not inhibit”.
